Experimental data published in patent publication US20240209027A1, “PEPTIDE AND PEPTIDE-CONTAINING COMPOSITION” (PeptiAID Inc.,, priority 2021, published 2024).
Read-outs that look alike come from different tables or passages of the source. Starred links: 1 amine or outer side, 2 acyl side, 3 side chain; linkers in the order of their positions; H or OH if unused. Positions of bridges follow the written chain, without caps; N, C: chain ends. Non-standard residues stand in square brackets, D forms with d. Residues, ends and D or L forms follow the SMILES beside them. Chains are numbered I, II in the order given. *: point of attachment. X5 = O=C(O)CCCCCCCCCCCCC(=O)N[C@@H](CCC(=O)N[C@@H](CCCCN*)C(=O)O)C(=O)O; X4 = O=C(O)CCCCCCCCCCC(=O)N[C@@H](CCC(=O)N[C@@H](CCCCN*)C(=O)O)C(=O)O; X6 = O=C(O)CCCCCCCCC(=O)N[C@@H](CCC(=O)N[C@@H](CCCCN*)C(=O)O)C(=O)O; Ala(piperidin-4-yl) = O=C([C@H](CC1CCN([*:3])CC1)N[*:1])[*:2]; Phe(4-COOH) = N[C@@H](Cc1ccc(C(=O)O)cc1)C(=O)O; Phe(4-F) = N[C@@H](Cc1ccc(F)cc1)C(=O)O; C12 diacid = O=C(O)CCCCCCCCCCC(=O)*; X1 = C[C@@H](Cc1ccc(O)cc1)C(=O)*; NMeE = CN[C@@H](CCC(=O)O)C(=O)O; Cha = N[C@@H](CC1CCCCC1)C(=O)O; Cit = NC(=O)NCCC[C@H](N)C(=O)O; NMeNle = CCCC[C@H](NC)C(=O)O; hCys = N[C@@H](CCS)C(=O)O; PEG2 = NCCOCCOCCC(=O)O; X2 = O=C(C[*:1])[*:2]; Aib = CC(C)(N)C(=O)O

Key:
Assay type in all cases: cell-based
[1] = target: SARS-CoV-2-derived S protein, Alpha strain (Severe acute respiratory syndrome coronavirus 2, UniProt P0DTC2, DEL69-70/DEL144-144/N501Y/A570D/D614G/P681H/T716I/S982A/D1118H, form not given)
[2] = target: SARS-CoV-2-derived S protein, Beta strain (Severe acute respiratory syndrome coronavirus 2, UniProt P0DTC2, D80A/D215G/DEL241-243/K417N/E484K/N501Y/D614G/A701V, form not given)
[3] = target: SARS-CoV-2-derived S protein, Gamma strain (Severe acute respiratory syndrome coronavirus 2, UniProt P0DTC2, L18F/T20N/P26S/D138Y/R190S/K417T/E484K/N501Y/D614G/H655Y/T1027I/V1176F, form not given)
[4] = system: SARS-CoV-2-derived S protein, Delta strain

## CCCC[C@H]1C(=O)NC(C)(C)C(=O)N[C@@H](CC2CCCCC2)C(=O)N[C@@H](Cc2ccc(F)cc2)C(=O)NC(C)(C)C(=O)N[C@@H](Cc2ccc(O)cc2)C(=O)N[C@@H](Cc2ccc(O)cc2)C(=O)N[C@@H](Cc2ccc(C(=O)O)cc2)C(=O)N[C@@H](CC2CCNCC2)C(=O)N[C@@H](CC2CCCCC2)C(=O)N[C@H](C(=O)N[C@H](CCC(=O)O)C(N)=O)CSCC(=O)N(C)[C@@H](CCC(=O)O)C(=O)N1C [Peptide 5555_p020] ({CH2CO}-[NMeE][NMeNle][Aib][Cha][Phe(4-F)][Aib]YY[Phe(4-COOH)][Ala(piperidin-4-yl)][Cha]C[dE]-NH2; thioether N-12)
[1]
  Imax: % (at 500 nM): 100%
[2]
  Imax: % (at 500 nM): 100%
[3]
  Imax: % (at 500 nM): 100%

## CCCC[C@H]1C(=O)NC(C)(C)C(=O)N[C@@H](CC2CCCCC2)C(=O)N[C@@H](Cc2ccc(F)cc2)C(=O)N[C@H](CC(=O)O)C(=O)N[C@@H](Cc2ccc(O)cc2)C(=O)N[C@@H](Cc2ccc(O)cc2)C(=O)N[C@@H](CCCNC(N)=O)C(=O)N[C@H](CCCCN)C(=O)N[C@@H](CC2CCCCC2)C(=O)N[C@H](C(=O)N[C@H](CCC(=O)O)C(=O)O)CSCC(=O)N(C)[C@@H](CCC(=O)O)C(=O)N1C [Peptide 5555_p028] ({CH2CO}-[NMeE][NMeNle][Aib][Cha][Phe(4-F)][dD]YY[Cit][dK][Cha]C[dE]-OH; thioether N-12)
[1]
  Imax: % (at 500 nM): 96%
[2]
  Imax: % (at 500 nM): 93%
[3]
  Imax: % (at 500 nM): 95%
[4]; Table 3
  IC50: […]
  Imax: % (at 500 nM): […]

## CCCC[C@@H](C(=O)NC(C)(C)C(=O)N[C@@H](CC1CCCCC1)C(=O)N[C@@H](Cc1ccc(F)cc1)C(=O)N[C@H](CC(=O)O)C(N)=O)N(C)C(=O)[C@H](CCC(=O)O)N(C)C(=O)CSCC[C@H](NC(=O)[C@H](CC1CCCCC1)NC(=O)[C@@H](CCCCN)NC(=O)[C@H](CCCNC(N)=O)NC(=O)[C@H](Cc1ccc(O)cc1)NC(=O)[C@@H](C)Cc1ccc(O)cc1)C(=O)N[C@H](CCC(=O)O)C(=O)N[C@H](CCCCNC(=O)CCCCCCCCCCC(=O)O)C(N)=O [Peptide 5555_p221] (I: X1-Y[Cit][dK][Cha][hCys][dE][dK](C12 diacid)-NH2 / II: [NMeE][NMeNle][Aib][Cha][Phe(4-F)][dD]-NH2; linker I:5-II:N via X2)
[4]; Table 12
  IC50: 2.6 nM
  Imax: % (at 500 nM): 97%

## CCCC[C@H]1C(=O)NC(C)(C)C(=O)N[C@@H](CC2CCCCC2)C(=O)N[C@@H](Cc2ccc(F)cc2)C(=O)N[C@H](CC(=O)O)C(=O)N[C@@H](Cc2ccc(O)cc2)C(=O)N[C@@H](Cc2ccc(O)cc2)C(=O)N[C@@H](CCCNC(N)=O)C(=O)N[C@H](CCCCN)C(=O)N[C@@H](CC2CCCCC2)C(=O)N[C@H](C(=O)N[C@H](CCC(=O)O)C(=O)NCCOCCOCCC(=O)N[C@H](CCCCNC(=O)CCCCCCCCCCC(=O)O)C(N)=O)CSCC(=O)N(C)[C@@H](CCC(=O)O)C(=O)N1C [Peptide 5555_p227] ({CH2CO}-[NMeE][NMeNle][Aib][Cha][Phe(4-F)][dD]YY[Cit][dK][Cha]C[dE][PEG2][dK](C12 diacid)-NH2; thioether N-12)
[4]; Table 12
  IC50: 1.9 nM
  Imax: % (at 500 nM): 100%

## CCCC[C@H]1C(=O)NC(C)(C)C(=O)N[C@@H](CC2CCCCC2)C(=O)N[C@@H](Cc2ccc(F)cc2)C(=O)N[C@H](CC(=O)O)C(=O)N[C@@H](Cc2ccc(O)cc2)C(=O)N[C@@H](Cc2ccc(O)cc2)C(=O)N[C@@H](CCCNC(N)=O)C(=O)N[C@H](CCCCN)C(=O)N[C@@H](CC2CCCCC2)C(=O)N[C@H](C(=O)N[C@H](CCC(=O)O)C(=O)NCCCC[C@H](NC(=O)CC[C@H](NC(=O)CCCCCCCCC(=O)O)C(=O)O)C(=O)O)CSCC(=O)N(C)[C@@H](CCC(=O)O)C(=O)N1C [Peptide 5555_p233] ({CH2CO}-[NMeE][NMeNle][Aib][Cha][Phe(4-F)][dD]YY[Cit][dK][Cha]C[dE]-X6; thioether N-12)
[4]; Table 12
  IC50: 4.2 nM
  Imax: % (at 500 nM): 99%

## CCCC[C@H]1C(=O)NC(C)(C)C(=O)N[C@@H](CC2CCCCC2)C(=O)N[C@@H](Cc2ccc(F)cc2)C(=O)N[C@H](CC(=O)O)C(=O)N[C@@H](Cc2ccc(O)cc2)C(=O)N[C@@H](Cc2ccc(O)cc2)C(=O)N[C@@H](CCCNC(N)=O)C(=O)N[C@H](CCCCN)C(=O)N[C@@H](CC2CCCCC2)C(=O)N[C@H](C(=O)N[C@H](CCC(=O)O)C(=O)NCCCC[C@H](NC(=O)CC[C@H](NC(=O)CCCCCCCCCCC(=O)O)C(=O)O)C(=O)O)CSCC(=O)N(C)[C@@H](CCC(=O)O)C(=O)N1C [Peptide 5555_p234] ({CH2CO}-[NMeE][NMeNle][Aib][Cha][Phe(4-F)][dD]YY[Cit][dK][Cha]C[dE]-X4; thioether N-12)
[4]; Table 12
  IC50: 5.9 nM
  Imax: % (at 500 nM): 99%

## CCCC[C@H]1C(=O)NC(C)(C)C(=O)N[C@@H](CC2CCCCC2)C(=O)N[C@@H](Cc2ccc(F)cc2)C(=O)N[C@H](CC(=O)O)C(=O)N[C@@H](Cc2ccc(O)cc2)C(=O)N[C@@H](Cc2ccc(O)cc2)C(=O)N[C@@H](CCCNC(N)=O)C(=O)N[C@H](CCCCN)C(=O)N[C@@H](CC2CCCCC2)C(=O)N[C@H](C(=O)N[C@H](CCC(=O)O)C(=O)NCCCC[C@H](NC(=O)CC[C@H](NC(=O)CCCCCCCCCCCCC(=O)O)C(=O)O)C(=O)O)CSCC(=O)N(C)[C@@H](CCC(=O)O)C(=O)N1C [Peptide 5555_p235] ({CH2CO}-[NMeE][NMeNle][Aib][Cha][Phe(4-F)][dD]YY[Cit][dK][Cha]C[dE]-X5; thioether N-12)
[4]; Table 12
  IC50: 7 nM
  Imax: % (at 500 nM): 99%
